Experimental data from patent US7427615B2, “3-substituted-4-pyrimidone derivatives” (Mitsubishi Pharma Corporation, priority 2001, dated 2008).

target: T1, bovine cerebral TPK1 (Bos taurus, UniProt A0A3Q1MT31); experiment: Inhibitory activity against P-GS1 phosphorylation by bovine cerebral TPK1; type: biochemical; conditions: 41.7 μM [γ-32P]ATP, 25° C., 2 hours, pH 6.5
T1 construct: from tissue; host or cells: bovine brain (cerebrum)
Description: Test Example: Inhibitory activity of the medicament of the present invention against P-GS1 phosphorylation by bovine cerebral TPK1
A mixture containing 100 mM MES-sodium hydroxide (pH 6.5), 1 mM magnesium acetate, 0.5 mM EGTA, 5 mM β-mercaptoethanol, 0.02% Tween 20, 10% glycerol, 12 μg/ml P-GS1, 41.7 μM [Υ-^32P] ATP (68 kBq/ml), bovine cerebral TPK1 and a compound shown in Table (a final mixture contained 1.7% DMSO deriving from a solution of a test compound prepared in the presence of 10% DMSO) was used as a reaction system. The phosphorylation was started by adding ATP, and the reaction was conducted at 25° C. for 2 hours, and then stopped by adding 21% perchloric acid on ice cooling. The reaction mixture was centrifuged at 12,000 rpm for 5 minutes and adsorbed on P81 paper (Whatmann), and then the paper was washed four times with 75 mM phosphoric acid, three times with water and once with acetone. The paper was dried, and the residual radioactivity was measured using a liquid scintillation counter.

T1 sequence (A0A3Q1MT31 1-419): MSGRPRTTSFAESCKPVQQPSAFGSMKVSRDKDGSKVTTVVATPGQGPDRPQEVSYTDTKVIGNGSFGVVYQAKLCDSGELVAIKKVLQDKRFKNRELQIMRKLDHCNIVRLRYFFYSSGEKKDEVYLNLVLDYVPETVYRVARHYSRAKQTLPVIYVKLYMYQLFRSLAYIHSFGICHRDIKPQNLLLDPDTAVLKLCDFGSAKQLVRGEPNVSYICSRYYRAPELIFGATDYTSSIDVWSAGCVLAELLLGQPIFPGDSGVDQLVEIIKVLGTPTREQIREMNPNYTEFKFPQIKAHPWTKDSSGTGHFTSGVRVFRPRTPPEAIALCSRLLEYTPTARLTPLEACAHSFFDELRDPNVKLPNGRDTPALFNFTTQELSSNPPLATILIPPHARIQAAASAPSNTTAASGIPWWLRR

Compared with Cn1c(N2CCOC(c3cccc(N4CCCC4)c3)C2)nc(-c2ccncc2)cc1=O (single isomer, unassigned) [B288], Cn1c(N2CCOC(c3ccc(N4CCCC4)cc3)C2)nc(-c2ccncc2)cc1=O (centres unmarked) [B140] is 5-fold lower in IC50: 40 nM for the first, 8 nM for the second.

First: Cn1c(N2CCOC(c3cccc(N4CCCC4)c3)C2)nc(-c2ccncc2)cc1=O (single isomer, unassigned) [B289]
Second: Cn1c(N2CCOC(c3cccc(Br)c3)C2)nc(-c2ccncc2)cc1=O (centres unmarked) [B051]
The IC50 of the first is 17-fold higher: 33 nM for the first, 1.9 nM for the second.

Compared with Cn1c(N2CCOC(C(=O)c3ccccc3)C2)nc(-c2ccncc2)cc1=O (single isomer, unassigned) [C389], Cn1c(N2CCCC(C(=O)c3ccccc3)C2)nc(-c2ccncc2)cc1=O (centres unmarked) [C001, 2-(3-Benzoylpiperidin-1-yl)-3-methyl-6-pyridin-4-yl-3H-pyrimidin-4-one] is 16-fold lower in IC50: 34 nM for the first, 2.1 nM for the second.

First: Cn1c(N2CCOC(C(=O)c3ccccc3)C2)nc(-c2ccncc2)cc1=O (single isomer, unassigned) [C390]
Second: Cn1c(N2CCC(C(=O)c3ccccc3)CC2)nc(-c2ccncc2)cc1=O [D001, 2-(4-benzoylpiperidin-1-yl)-3-methyl-6-pyridin-4-yl-3H-pyrimidin-4-one]
The IC50 of the first is 9-fold lower: 1 nM for the first, 9 nM for the second. The first is the more potent here.

Compared with Cn1c(NCC(=O)c2ccccc2)nc(-c2ccncc2)cc1=O [A001, 3-methyl-2-(2-oxo-2-phenylethylamino)-6-pyridin-4-yl-3H-pyrimidin-4-one], Cn1c(NCC(=O)c2ccccc2F)nc(-c2ccncc2)cc1=O [A002] is 3-fold higher in IC50: 8.9 nM for the first, 27 nM for the second.

Compared with Cn1c(NCC(=O)c2cccc(Cl)c2)nc(-c2ccncc2)cc1=O [A006], Cn1c(N2CCC(C(=O)c3ccc(Cl)cc3)CC2)nc(-c2ccncc2)cc1=O [D009, 2-[4-(4-Chlorobenzoyl)piperidin-1-yl]-3-methyl-6-pyridin-4-yl-3H-pyrimidin-4-one] is 2.2-fold lower in IC50: 13 nM for the first, 6 nM for the second.

Going from Cn1c(N2CCOC(CCc3ccccc3)C2)nc(-c2ccncc2)cc1=O (centres unmarked) [B010] to Cn1c(N2CCOC(C(=O)c3ccccc3)C2)nc(-c2ccncc2)cc1=O (centres unmarked) [C101, 2-(2-benzoylmorpholin-4-yl)-3-methyl-6-pyridin-4-yl-3H-pyrimidin-4-one], the IC50 falls from 6 nM to 3.5 nM (1.7-fold). The second is the more potent here.

Going from Cn1c(N2CCO[C@@H](c3ccccc3F)C2)nc(-c2ccncc2)cc1=O [B037] to Cn1c(N2CCO[C@@H](c3ccccc3Cl)C2)nc(-c2ccncc2)cc1=O [B046], the IC50 rises from 4.8 nM to 8.3 nM (1.7-fold). The first is the more potent here.

Going from Cn1c(N2CCOC(c3ccccc3Br)C2)nc(-c2ccncc2)cc1=O (centres unmarked) [B054] to Cc1ccccc1C1CN(c2nc(-c3ccncc3)cc(=O)n2C)CCO1 (centres unmarked) [B063], the IC50 rises from 4 nM to 6 nM (1.5-fold).

Going from COc1ccc([C@H]2CN(c3nc(-c4ccncc4)cc(=O)n3C)CCO2)cc1 [B079, (S)-2-[2-(4-Methoxyphenyl)morpholin-4-yl]-3-methyl-6-pyridin-4-yl-3H-pyrimidin-4-one] to CC(C)Oc1ccc(C2CN(c3nc(-c4ccncc4)cc(=O)n3C)CCO2)cc1 (centres unmarked) [B122], the IC50 rises from 3.3 nM to 63 nM (19-fold).

COc1ccccc1C1CN(c2nc(-c3ccncc3)cc(=O)n2C)CCO1 (centres unmarked) [B084] and COc1ccccc1[C@H]1CN(c2nc(-c3ccncc3)cc(=O)n2C)CCO1 [B085] are within 1.5-fold of each other in IC50: 1.1 nM for the first, 1.4 nM for the second.

Compared with CCOc1ccccc1C1CN(c2nc(-c3ccncc3)cc(=O)n2C)CCO1 (centres unmarked) [B087], COc1cc(F)ccc1C1CN(c2nc(-c3ccncc3)cc(=O)n2C)CCO1 (centres unmarked) [B091] is 4.2-fold lower in IC50: 5 nM for the first, 1.2 nM for the second. The second is the more potent here.

First: Cn1c(N2CCOC(c3cc(F)c(F)cc3Cl)C2)nc(-c2ccncc2)cc1=O (centres unmarked) [B097]
Second: Cn1c(N2CCOC(c3ccc(F)cc3Cl)C2)nc(-c2ccncc2)cc1=O (centres unmarked) [B253]
The IC50 of the first is 5.4-fold lower: 2.8 nM for the first, 15 nM for the second.

First: Cn1c(N2CCOC(c3ccc(F)cc3Br)C2)nc(-c2ccncc2)cc1=O (centres unmarked) [B100]
Second: COc1cc(F)ccc1[C@@H]1CN(c2nc(-c3ccncc3)cc(=O)n2C)CCO1 [B285]
The IC50 of the first is 1.9-fold lower: 4.7 nM for the first, 8.9 nM for the second.

Compared with COc1cccc(OC)c1[C@H]1CN(c2nc(-c3ccncc3)cc(=O)n2C)CCO1 [B103], CCn1c(N2CCOC(c3c(OC)cccc3OC)C2)nc(-c2ccncc2)cc1=O (centres unmarked) [B263] is 3.3-fold higher in IC50: 0.36 nM for the first, 1.2 nM for the second.

First: Cn1c(N2CCO[C@@H](c3c(Cl)cccc3Cl)C2)nc(-c2ccncc2)cc1=O [B106]
Second: Cn1c(N2CCO[C@H](c3c(Cl)cccc3Cl)C2)nc(-c2ccncc2)cc1=O [B107]
The IC50 of the first is 36-fold lower: 1.4 nM for the first, 50 nM for the second. The first is the more potent here.

First: Cn1c(N2CCO[C@@H](c3c(F)cccc3F)C2)nc(-c2ccncc2)cc1=O [B110]
Second: Cn1c(N2CCOC(c3ccc(F)c(F)c3)C2)nc(-c2ccncc2)cc1=O (centres unmarked) [B257]
The IC50 of the first is 8.2-fold lower: 8.2 nM for the first, 67 nM for the second.

First: Cn1c(N2CCOC(c3ccc(OCC4CC4)cc3)C2)nc(-c2ccncc2)cc1=O (centres unmarked) [B128]
Second: Cn1c(N2CCOC(c3cccc(S(C)(=O)=O)c3)C2)nc(-c2ccncc2)cc1=O (centres unmarked) [B130]
The IC50 of the first is 1.8-fold lower: 30 nM for the first, 52.9 nM for the second.

Compared with COc1ccc(-c2cccnc2)cc1C1CN(c2nc(-c3ccncc3)cc(=O)n2C)CCO1 (centres unmarked) [B256], COc1ccc(-c2cccc(CN3CCCC3)c2)cc1C1CN(c2nc(-c3ccncc3)cc(=O)n2C)CCO1 (centres unmarked) [B287] is 1.9-fold lower in IC50: 1.1 nM for the first, 0.57 nM for the second. The second is the more potent here.

First: COc1cc(OC(C)C)ccc1C1CN(c2nc(-c3ccncc3)cc(=O)n2C)CCO1 (centres unmarked) [B261]
Second: COc1cc(-c2ccccc2F)ccc1C1CN(c2nc(-c3ccncc3)cc(=O)n2C)CCO1 (centres unmarked) [B290]
The IC50 of the first is 1.5-fold lower: 1.3 nM for the first, 2 nM for the second.

First: Cn1c(N2CCCC(C(=O)Nc3ccccc3)C2)nc(-c2ccncc2)cc1=O (centres unmarked) [C067, 1-(1-Methyl-6-oxo-4-pyridin-4-yl-1,6-dihydro-pyrimidine-2-yl)-piperidine-3-carboxanilide]
Second: Cn1c(N2CCC(C(=O)c3ccccc3F)CC2)nc(-c2ccncc2)cc1=O [D002]
The IC50 of the first is 3.1-fold higher: 72 nM for the first, 23 nM for the second.

Cn1c(N2CCC(C(=O)c3ccc(F)cc3)CC2)nc(-c2ccncc2)cc1=O [D004] and COc1ccc(C(=O)C2CCN(c3nc(-c4ccncc4)cc(=O)n3C)CC2)cc1 [D007] are within 1.5-fold of each other in IC50: 15 nM for the first, 18 nM for the second.

COc1cccc(C(=O)C2CCN(c3nc(-c4ccncc4)cc(=O)n3C)CC2)c1OC [D011] and COc1cc(F)ccc1C(=O)C1CCN(c2nc(-c3ccncc3)cc(=O)n2C)CC1 [D025] are within 1.5-fold of each other in IC50: 11 nM for the first, 16 nM for the second.

Cn1c(N2CCC(C(=O)c3ccc(F)cc3F)CC2)nc(-c2ccncc2)cc1=O [D012] and Cn1c(N2CCC(C(=O)c3ccc(F)c(F)c3)CC2)nc(-c2ccncc2)cc1=O [D013] are the same in IC50: 19 nM for the first, 19 nM for the second.

Going from Cn1c(N2CCC(C(=O)c3cccs3)CC2)nc(-c2ccncc2)cc1=O [D014] to Cn1c(N2CCC(C(=O)c3ccc(Cl)s3)CC2)nc(-c2ccncc2)cc1=O [D021], the IC50 falls from 20 nM to 11 nM (1.8-fold). The second is the more potent here.

Compared with Cn1c(N2CCC(C(=O)n3ccc4ccccc43)CC2)nc(-c2ccncc2)cc1=O [D017], Cn1c(N2CCC(C(=O)c3cccc4ccccc34)CC2)nc(-c2ccncc2)cc1=O [D024] is 1.9-fold higher in IC50: 10 nM for the first, 19 nM for the second. The first is the more potent here.

Going from Cn1c(N2CCC(C(=O)N3CCCc4ccccc43)CC2)nc(-c2ccncc2)cc1=O [D018] to Cn1c(N2CCC(C(=O)N3CCc4ccccc43)CC2)nc(-c2ccncc2)cc1=O [D019], the IC50 rises from 4.3 nM to 8.1 nM (1.9-fold). The first is the more potent here.

Compared with Cn1c(N2CCC(C(=O)c3ccc(-c4ccccc4)cc3)CC2)nc(-c2ccncc2)cc1=O [D022], Cn1c(N2CCC(C(=O)c3ccccc3-c3ccccc3)CC2)nc(-c2ccncc2)cc1=O [D023] is 1.7-fold higher in IC50: 7.8 nM for the first, 13 nM for the second. The first is the more potent here.
